Laboratory results: US20190112357A1, “PREVENTION OF PROTEIN DISULFIDE BOND REDUCTION” (MedImmune, LLC, priority 2016, published 2019)
Blank lines part the entries; values can stand above or below the molecule they belong to.

Key:
[1] = Antibody reduction potential assay (Vacuum/GX); type: physicochemical; conditions: EDTA 9.5, 19, 38 mM or Cystine 4 and 8 mM
Method: Bioreactor samples (1 mL) were obtained daily and centrifuged at 3000-4000 RPM and the supernatant was frozen immediately at −80° C. On the day prior to the assay, the samples were removed from −80° C. storage, thawed, and placed in a vacuum chamber at room temperature overnight to induce reduction of the monoclonal antibody without the interference of oxygen. After the vacuum hold, the samples were analyzed for protein fragmentation under non-reducing conditions using a BioAnalyzer system (Agilent Technologies) or a LABCHIP® GXII system (PerkinElmer) to detect antibody fragments resulting from the breakage of the antibody's interchain disulfide bonds. […]
Samples were stored frozen until analyzed. […] After being denatured and the free thiols being capped by NEM, the samples were analyzed using a Perkin Elmer Labchip® GXII (Perkin Elmer, Waltham, Mass.) to perform size fractionation and quantification. Using the Labchip® GXII, the protein and fragments were detected by laser-induced fluorescence and translated into gel-like images (bands) and electropherograms (peaks).
Reduction potential, i.e. the potential of the molecule to be reduced under anaerobic condition, was measured by subjecting samples to vacuum analysis as described above followed addition of non-reducing sample buffer. […]

[2] = Antibody aggregation analysis (HP-SEC); type: physicochemical; conditions: EDTA 9.5, 19, 38 mM or Cystine 4 and 8 mM
Method: The percent of antibody aggregates was determined using standard size exclusion chromatography (HP-SEC) methods. An Agilent 1200 series system was used with a Tosoh Bioscience TSKgel G3000SW XL column (Tosoh Bioscience LLC, King of Prussia, Pa.) (7.8 mm×300 mm) at 1 mL/min flow rate using a mobile phase buffer of 0.1 M sodium phosphate, 0.1 M sodium sulfate, pH 6.8. The absorbance chromatography at 280 nm was used to quantify the results.

[3] = target: T1, recombinant mammalian TrxR1/Trx1 (Rattus norvegicus, UniProt O89049); assay: Reduction of purified mAb B by recombinant TrxR1/Trx1, capillary electrophoresis; type: biochemical, human (Trx1)
T1 construct: purchased Cayman Chemical (TrxR1); Abcam (Trx1)
T1 sequence (O89049 1-499): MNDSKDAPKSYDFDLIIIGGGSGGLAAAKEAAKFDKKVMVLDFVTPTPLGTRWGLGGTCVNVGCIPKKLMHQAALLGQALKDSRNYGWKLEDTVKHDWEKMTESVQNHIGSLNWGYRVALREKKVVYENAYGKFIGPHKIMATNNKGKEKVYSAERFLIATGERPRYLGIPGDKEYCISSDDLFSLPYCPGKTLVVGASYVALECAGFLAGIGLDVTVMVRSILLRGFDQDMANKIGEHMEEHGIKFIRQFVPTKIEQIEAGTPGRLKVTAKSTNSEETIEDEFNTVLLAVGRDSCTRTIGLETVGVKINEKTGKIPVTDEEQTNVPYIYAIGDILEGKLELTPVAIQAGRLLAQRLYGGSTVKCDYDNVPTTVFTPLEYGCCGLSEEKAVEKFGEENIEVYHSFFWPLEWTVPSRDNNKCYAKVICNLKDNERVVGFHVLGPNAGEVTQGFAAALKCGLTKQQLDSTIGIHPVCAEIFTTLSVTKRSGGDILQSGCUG
Method: (§1) Antibody reduction in cell culture supernatant samples was measured by detecting the presence of reduced species via capillary electrophoresis using standard procedures on a 2100 Bioanalyzer system (Agilent Technologies, Santa Clara, Calif.). Samples were diluted 1-6 fold depending on titer and analyzed under non-reducing conditions following 2100 Bioanalyzer standard protocols. Supernatant samples from 3 L bioreactors were stored frozen until all samples had been acquired and were ready for analysis. Samples were thawed on ice and analyzed immediately to evaluate the amount of reduced antibody in the reactor on each day of the run.
The role of each enzymatic system in antibody reduction was evaluated by determining the conditions under which these reductase systems cause antibody reduction. Using purified recombinant mammalian reductases, the thioredoxin system was evaluated by spiking purified mAb B into five solutions containing: 1) no enzymes, 2) 1 μM TrxR1, 3) 0.1 μM TrxR1, 4) […], and 5) 0.1 μM TrxR1+2.5 μM Trx1. All samples contained 0.4 mM NADPH and were stored at room temperature overnight. Digital gel-like images were obtained from microchip-based capillary electrophoresis analysis.
(§2) To confirm that the activity from a particular reductase system can translate into reduced antibody, a second method was developed to determine the impact of each reductase system on antibody reduction. The principle of the reduction assay is similar to the reductase activity assay described above. The percent of protein reduction without an inhibitor was compared to the percent of protein reduction in the presence of specific inhibitors for GR or TrxR1. In this assay, purified mAb B was spiked into solutions containing recombinant mammalian TrxR1/Trx1 or recombinant mammalian GR/GSSG and stored in an oxygen-free environment overnight. The percent of reduced mAb B antibody was evaluated using capillary electrophoresis, as set forth above.

[4] = target: T2, recombinant mammalian GR/GSSG (Homo sapiens, UniProt P00390); assay: Reduction of purified mAb B by recombinant GR/GSSG, capillary electrophoresis; type: biochemical
T2 construct: purchased Abcam
T2 sequence (P00390 44-522): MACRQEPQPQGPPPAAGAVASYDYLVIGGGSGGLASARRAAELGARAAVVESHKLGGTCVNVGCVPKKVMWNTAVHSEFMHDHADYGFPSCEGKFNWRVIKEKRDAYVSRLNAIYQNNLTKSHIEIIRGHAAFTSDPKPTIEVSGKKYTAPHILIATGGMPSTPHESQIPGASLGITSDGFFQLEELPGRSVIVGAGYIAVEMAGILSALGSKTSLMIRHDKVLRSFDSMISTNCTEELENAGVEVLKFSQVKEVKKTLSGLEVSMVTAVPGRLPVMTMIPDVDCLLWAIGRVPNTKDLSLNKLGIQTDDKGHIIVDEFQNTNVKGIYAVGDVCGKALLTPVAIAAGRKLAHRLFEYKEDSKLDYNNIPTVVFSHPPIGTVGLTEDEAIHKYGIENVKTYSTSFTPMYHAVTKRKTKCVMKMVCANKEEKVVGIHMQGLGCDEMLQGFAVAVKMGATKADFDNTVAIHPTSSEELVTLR
Method: as §1
Using the same approach with recombinant mammalian enzymes, the glutathione system was evaluated by spiking mAb B into five solutions containing: 1) no enzyme, 2) 1 mM GSSG (oxidized glutathione), 3) 0.2 μM GR (glutathione reductase), 4) 0.2 μM GR with 1 mM GSSG, and 5) 0.02 μM GR with 1 mM GSSG. […] The results indicated a minimal mAb B reduction in the solutions containing GSSG alone. This is the result of an impurity in the GSSG. […] was reduced in the solutions containing both GR and GSSG.
as §2

[5] = system: GR isolated from CHO cell culture; assay: mAb B reduction by pooled CHO fractions with NADPH and GSSG; type: biochemical, Chinese Hamster; conditions: 3 μM Cu^2+ or 100 μM ATG, overnight room temperature
Method: (§3) Purified mAb B was spiked into several solutions containing different combinations of the pooled fractions (PF), recombinant Trx1, GSSG, NADPH, ATG, and Cu^2+. The solutions were incubated at room temperature overnight and the amount of intact antibody remaining was determined by capillary electrophoresis according to the protocol described above. In the first set of samples, purified mAb B was spiked into the pooled fractions with, and without, NADPH.
In the second set of samples, purified mAb B was spiked into solutions containing the pooled enzymes, NADPH, GSSG, and either no inhibitor, 3 μM Cu^2+, or 100 μM ATG. […] This solution contained GR, GSSG, and NADPH, which are needed for the glutathione system.

[6] = system: TrxR1 purified from CHO cell cultures; assay: mAb B reduction by pooled CHO fractions with NADPH and Trx1; type: biochemical, Chinese Hamster; conditions: 3 μM Cu^2+ or 100 μM ATG, overnight room temperature
Method: as §3
The third set of solutions contained the pooled enzymes, NADPH, Trx1, and either no inhibitor, 3 μM Cu^2+, or 100 μM ATG. […] In the final sample as a control, mAb B was spiked into a solution containing NADPH, Trx1, and GSSG.

[7] = target: T3, GR/GSSG (Homo sapiens, UniProt P00390); assay: DTNB reductase activity assay, recombinant GR/GSSG; type: biochemical; conditions: 2-AAPA at 100 μM and higher
T3 construct: purchased Abcam
T3 sequence (P00390 44-522): T2 sequence (P00390 44-522)
Method: (§4) Briefly, culture samples were thawed on ice. […] The samples were then allowed to incubate 5 minutes.
(§5) Activity of the reductases was calculated as follows. […] The activity was then calculated by the following equation: […]

[8] = system: GR purified from a day 14 culture of cell line B; assay: DTNB reductase activity of 2'5'-ADP column fractions from cell line B, GR; type: biochemical, Chinese Hamster; conditions: 100 μM 2-AAPA, fractions B1-C2, depending on the fraction
Method: Reductases were purified from cell samples to verify the specificity of reductase inhibitors. A day 14 culture of mAb B (IgG antibody produced by CHO cell line B CHO-K1SV) was pelleted by centrifugation, washed once with PBS and re-suspended in 50 mM tris buffer, pH 7.5. The solution was homogenized and filtered at 0.2 μm prior to loading onto a column of 2′5′-ADP Sepharose 4B resin. The reductases were eluted using a linearly increasing gradient of 0 to 0.3 mM NADP^+ in the same tris buffer (Yadav, et al., Parasitol. Int., 62:193-198, 2013). The reductase activity of the collected fractions was determined using the assay described in Example 3. Additionally, western blot analysis was used to detect TrxR1 and GR in the collected fractions.
The reductase-specific inhibitors were evaluated above using purified recombinant mammalian enzymes from rat and human. […] The added activity from the two systems was approximately equal to the total activity detected in the absence of an inhibitor for each fraction. […] That is, if the reductase inhibitors were non-specifically inhibiting both enzymatic systems, the added reductase activity would have been […] than the reductase activity detected without any added inhibitor. […] The fractions with reductase activity were pooled and further evaluated at the inhibitor concentrations assayed in the antibody reduction assay.

[9] = system: glutathione system; assay: Reductase activity assay, day 14 culture samples, glutathione system; type: biochemical, Chinese Hamster; conditions: day 14, 100 μM 2-AAPA
Method: The total reductase activity was determined in the absence of any inhibitor. […] Thus, the difference in activity between a sample with ATG, and a sample without any inhibitor, indicates the amount of reductase activity contributed the thioredoxin system. […] Thus, the difference in reductase activity between a sample with 2-AAPA, and a sample without any inhibitor, indicates the amount of reductase activity contributed by the glutathione system. Although ATG and 2-AAPA are provided as exemplary specific inhibitors, other specific inhibitors discussed above can be employed in this assay instead of ATG and 2-AAPA.
as §4, §5
The reductase activities of the thioredoxin and glutathione systems were evaluated in day 14 culture samples of the same CHO cell lines A, B, C, and D, using the previously evaluated specific inhibitors 2-AAPA and ATG at 100 μM and 0.5 μM respectively. Data in FIG. 6A were normalized to viable cell density. Cell lines A, B, and C were described in Example 6, above. Cell line D is the cell line CHO CAT-S, and is stably transfected to produce an IgG1 mAb (mAb D).

[10] = target: T4, recombinant TrxR1/Trx1 (Rattus norvegicus, UniProt O89049); assay: DTNB reductase activity assay, recombinant TrxR1/Trx1; conditions: 2-AAPA 10 μM to 200 μM
T4 sequence (O89049 1-499): T1 sequence (O89049 1-499)
Method: This assay allows determination of the total reductase activity in a culture sample, as well as determination of the individual contribution made by thioredoxin reductase and glutathione reductase to the total reductase activity of the sample. In this assay, culture samples (cells+media) from 3 L bioreactors were stored frozen until the end of the run, after which the samples were centrifuged to remove the cell pellet then the resulting supernatant was diluted 20-fold into 100 mM tris buffer, pH 7.4, containing 0.4 mM NADPH, 0.15 mM oxidized glutathione, and 3 mM DTNB with the indicated concentration of specific reductase inhibitor. Addition of the enzyme specific inhibitors to the samples allowed the total reductase activity to be determined as well as the individual activity from the thioredoxin and glutathione systems. Reductase activity was monitored by spectroscopic measurement of the increase in absorbance at a wavelength of 412 nm. […] The detected increase in absorbance at this wavelength is caused by the reduction of DTNB (Arnér, ESJ, Biochim. Biophys. Acta—Gen. Subj., 1790:495-526, 2009).
Briefly, culture samples were thawed on ice. […] The absorbance at a wavelength of 412 nm was determined every 30 seconds, for 20 minutes.
Activity of the reductases was calculated as follows. The change in absorbance per minute (Δ412) for each well was determined. […]

reduction potential at the time of harvest of sheared mAb E material [1]: no reduction potential
aggregation of sheared mAb E material after 8 days at 2-8° C. [2]: limited the extent of mAb aggregation
SMILES: O=C(O)CN(CCN(CC(=O)O)CC(=O)O)CC(=O)O [EDTA, ethylenediamine tetraacetic acid]

SMILES: O=S(=O)([O-])[O-].[Cu+2] [Cu^2+, copper (II) sulfate]
intact antibody remaining in the TrxR1/Trx1 sample ([3]; 3 μM Cu^2+): 20%
antibody reduction from the thioredoxin system ([3]; Cu^2+ 3-100 μM): only partially inhibited
antibody reduction caused by GR/GSSG ([4]; 3 μM Cu^2+): almost completely inhibited
antibody reduction in samples containing GR/GSSG ([4]; Cu^2+ 3-100 μM): prevented antibody reduction
antibody reduction in pooled enzymes, NADPH, GSSG [5]: completely inhibited all antibody reduction
antibody reduction in pooled enzymes, NADPH, Trx1 [6]: marginally prevented antibody reduction

GR/GSSG activity [7]: completely inhibiting
behaviour of 2-AAPA in the antibody reduction assay ([4]; same method as for ATG): directly caused antibody reduction
share of total reductase activity caused by the glutathione system ([9]; cell line A): 70%
share of total reductase activity caused by the glutathione system ([9]; cell line B): 45%
share of total reductase activity caused by the glutathione system ([9]; cell line C): 5%
share of total reductase activity caused by the glutathione system ([9]; cell line D): 45%
effect on the reductase activity of TrxR1/Trx1 solutions [10]: minimal effect
SMILES: CC(=O)NC(CSC(=S)Nc1ccc(NC(=S)SCC(NC(C)=O)C(=O)O)cc1)C(=O)O (stereo not shown) [2-AAPA, 2-Acetylamino-3-[4-(2-acetylamino-2-carboxyethylsulfanylthiocarbonyl-amino)phenylthiocarbamoylsulfanyl]propionic acid]
share of reductase activity from glutathione reductase, determined with the inhibitor [8]: 25-40%
